Measurements taken from patent US9168311B2, “Oligomer-dantrolene conjugates and related compounds” (Nektar Therapeutics, priority 2007, dated 2015).
Counter-ions that a name gives are not always drawn.

What was measured:
[1] = pKa and LogP determination with a Sirius GLPKa instrument; format: physicochemical
[2] = target: T1, cardiac L-type calcium channel (Homo sapiens, UniProt Q13936); experiment: Calcium current (ICa) block, whole-cell patch clamp in isolated human atrial myocytes; format: cell-based; conditions: for IC50: read-out: IC50 at 0.1 Hz; for Fold Difference (Parent vs. Derivative): ratio of IC50 at 0.1 Hz, derivative vs. dantrolene
T1 construct: Human myocytes were obtained from specimens of human right atrial appendage obtained during surgery; endogenous in cells; host or cells: primary human atrial myocytes isolated from right atrial appendage
Protocol: Human myocytes were obtained from specimens of human right atrial appendage obtained during surgery from hearts of patients undergoing cardiopulmonary bypass. The isolation procedure produced rod-shaped, calcium tolerant cells which were used within 24 hours after isolation (Crumb et al., (1995) Am J Physiol 268:H1335-H1342).
The whole-cell patch clamp technique was carried out at 23±1° C. with precise micromanipulation under high power visual magnification to measure calcium currents. Glass pipettes were fire polished to produce tip diameters of 1-4 μm. The tip of the pipette, filled with electrolyte “internal” solution (a composition of (mM): 120 CsCl, 20 TEACl, 5 NaCl, 1 CaCl2, 10 EGTA, 10 HEPES, 5 MgATP, 0.2 Na2GTP, adjusted to pH 7.2 with CsOH) was positioned onto a cell. The cell was in a bathing “external” solution (consisting of (mM): 1.8 CaCl2, 137 NaCl, 20 CsCl, 4 KCl, 1 MgCl2, 10 HEPES, 10 dextrose, pH=7.4 with NaOH). Pipette tip resistance was approximately 1.0 to 2.0 MΩ when filled with the internal solution. Suction was then applied to the pipette interior to seal the cell membrane onto the tip. Another suction pulse then broke the membrane, establishing electrical access into the interior of the cell. The cellular interior then became dialysed by the solution the patch pipette was filled with.
After rupture of the cell membrane (entering whole-cell mode), current kinetics and amplitudes were allowed to stabilize (currents elicited by a series of voltage pulses given at 0.1 Hz were superimposed) as the cell was dialyzed with internal solution and paced at 1 Hz (3-5 minutes). Calcium current (ICa) was measured using a voltage pulse to 0 mV (200 ms duration) from a holding potential of −60 mV. Only a pacing rate of 0.1 Hz was used. Test article, at concentrations of 0.1, 1, 3, 10, 30, and […] was added in a cumulative manner to a cell.
Currents and voltages were recorded with patch-clamp amplifiers (Axopatch 1-B, Axon Instruments, Foster City, Calif.). Creation of voltage clamp pulses and data acquisition was controlled by a computer using electrophysiology software (pCLAMP version 9.2, Axon Instruments, Foster City, Calif.). […] Each cell served as its own control.
All stock solutions (10 mM) were made by adding DMSO directly into the bottle containing the test article.
Approximate IC50 values (Table 1) were obtained from non-linear regression analysis of dose-response curves (FIG. 1) using GraphPad's Prism 5.01 software. Data was also analyzed for mean percent inhibition±SEM at the highest concentration tested, 100 μM (FIG. 2).
To test for cell sensitivity, 0.1 μM nisoldipine was added after exposure to test article.

T1 sequence (Q13936 whole entry): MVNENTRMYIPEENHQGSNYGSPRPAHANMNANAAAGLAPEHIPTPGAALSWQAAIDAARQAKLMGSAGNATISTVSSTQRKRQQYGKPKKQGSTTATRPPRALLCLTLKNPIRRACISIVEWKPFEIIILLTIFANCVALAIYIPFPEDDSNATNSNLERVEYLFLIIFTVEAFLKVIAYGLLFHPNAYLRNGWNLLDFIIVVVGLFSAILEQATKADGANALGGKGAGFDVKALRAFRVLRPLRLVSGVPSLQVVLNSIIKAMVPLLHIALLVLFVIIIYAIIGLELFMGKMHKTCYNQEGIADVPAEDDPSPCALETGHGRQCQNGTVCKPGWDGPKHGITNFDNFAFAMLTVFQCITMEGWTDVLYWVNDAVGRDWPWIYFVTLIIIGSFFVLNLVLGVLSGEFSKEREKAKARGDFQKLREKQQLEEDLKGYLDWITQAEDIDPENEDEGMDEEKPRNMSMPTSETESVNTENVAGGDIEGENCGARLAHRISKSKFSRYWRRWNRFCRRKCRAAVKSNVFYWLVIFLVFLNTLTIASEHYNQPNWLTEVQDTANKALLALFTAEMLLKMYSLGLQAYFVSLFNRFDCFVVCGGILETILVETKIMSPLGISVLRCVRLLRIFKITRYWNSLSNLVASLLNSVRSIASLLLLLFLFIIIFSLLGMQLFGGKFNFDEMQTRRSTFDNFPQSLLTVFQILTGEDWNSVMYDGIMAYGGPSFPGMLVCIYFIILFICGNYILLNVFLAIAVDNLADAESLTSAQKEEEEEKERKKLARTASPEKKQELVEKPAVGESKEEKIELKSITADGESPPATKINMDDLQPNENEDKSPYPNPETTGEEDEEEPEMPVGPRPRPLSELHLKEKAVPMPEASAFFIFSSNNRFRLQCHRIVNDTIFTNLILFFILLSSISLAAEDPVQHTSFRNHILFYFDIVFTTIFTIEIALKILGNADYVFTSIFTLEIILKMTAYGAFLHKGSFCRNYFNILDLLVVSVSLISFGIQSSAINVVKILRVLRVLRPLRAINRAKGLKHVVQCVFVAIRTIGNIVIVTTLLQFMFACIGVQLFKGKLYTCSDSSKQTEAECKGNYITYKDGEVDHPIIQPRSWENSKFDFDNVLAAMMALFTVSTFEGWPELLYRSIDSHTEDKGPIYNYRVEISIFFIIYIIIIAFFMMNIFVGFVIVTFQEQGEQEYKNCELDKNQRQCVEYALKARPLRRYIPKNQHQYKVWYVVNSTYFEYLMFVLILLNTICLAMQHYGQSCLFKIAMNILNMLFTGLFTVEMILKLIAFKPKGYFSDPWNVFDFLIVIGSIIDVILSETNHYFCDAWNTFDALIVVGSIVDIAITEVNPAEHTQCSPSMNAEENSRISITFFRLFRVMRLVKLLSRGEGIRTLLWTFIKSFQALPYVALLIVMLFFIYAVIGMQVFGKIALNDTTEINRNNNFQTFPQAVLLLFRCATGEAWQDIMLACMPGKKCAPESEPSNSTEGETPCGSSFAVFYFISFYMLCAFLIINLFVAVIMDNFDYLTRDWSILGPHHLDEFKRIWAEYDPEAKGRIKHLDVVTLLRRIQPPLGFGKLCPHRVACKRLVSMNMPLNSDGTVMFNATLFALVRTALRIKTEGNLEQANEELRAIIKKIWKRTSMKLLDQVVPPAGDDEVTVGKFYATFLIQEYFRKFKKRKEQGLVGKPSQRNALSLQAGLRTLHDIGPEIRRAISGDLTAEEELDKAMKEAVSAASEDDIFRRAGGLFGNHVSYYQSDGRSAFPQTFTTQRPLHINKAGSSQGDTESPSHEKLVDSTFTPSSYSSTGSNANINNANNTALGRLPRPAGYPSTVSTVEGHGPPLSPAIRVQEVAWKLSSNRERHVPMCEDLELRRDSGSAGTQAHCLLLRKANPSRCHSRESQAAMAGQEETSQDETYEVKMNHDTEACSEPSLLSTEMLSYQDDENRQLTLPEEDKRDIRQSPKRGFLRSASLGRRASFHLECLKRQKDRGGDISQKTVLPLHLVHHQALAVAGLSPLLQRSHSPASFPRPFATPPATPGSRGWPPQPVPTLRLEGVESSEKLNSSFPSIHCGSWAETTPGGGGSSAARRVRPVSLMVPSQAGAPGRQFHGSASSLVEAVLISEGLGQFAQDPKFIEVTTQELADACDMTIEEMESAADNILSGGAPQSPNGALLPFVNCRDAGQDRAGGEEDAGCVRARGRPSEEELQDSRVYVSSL
T1 sequence (Q08289 whole entry partner): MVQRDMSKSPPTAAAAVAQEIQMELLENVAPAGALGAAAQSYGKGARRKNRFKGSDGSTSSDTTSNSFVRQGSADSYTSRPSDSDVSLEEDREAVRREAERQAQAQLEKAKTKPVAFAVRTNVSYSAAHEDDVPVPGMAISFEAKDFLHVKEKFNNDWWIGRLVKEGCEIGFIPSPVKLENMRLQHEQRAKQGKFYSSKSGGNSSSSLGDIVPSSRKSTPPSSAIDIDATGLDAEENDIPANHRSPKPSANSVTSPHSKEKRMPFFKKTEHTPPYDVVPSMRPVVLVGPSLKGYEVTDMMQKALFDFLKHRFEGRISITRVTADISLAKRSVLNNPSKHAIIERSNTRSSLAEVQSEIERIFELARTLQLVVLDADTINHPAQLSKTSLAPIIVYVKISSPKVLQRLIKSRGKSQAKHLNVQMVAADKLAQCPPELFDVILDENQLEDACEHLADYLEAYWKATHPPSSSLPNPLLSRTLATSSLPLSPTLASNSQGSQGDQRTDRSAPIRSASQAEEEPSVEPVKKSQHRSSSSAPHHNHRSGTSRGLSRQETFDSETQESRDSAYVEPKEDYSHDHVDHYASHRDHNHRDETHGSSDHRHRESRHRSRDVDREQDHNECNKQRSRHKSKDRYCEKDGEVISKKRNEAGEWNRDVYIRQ
T1 sequence (P54289 25-956 partner limits assumed): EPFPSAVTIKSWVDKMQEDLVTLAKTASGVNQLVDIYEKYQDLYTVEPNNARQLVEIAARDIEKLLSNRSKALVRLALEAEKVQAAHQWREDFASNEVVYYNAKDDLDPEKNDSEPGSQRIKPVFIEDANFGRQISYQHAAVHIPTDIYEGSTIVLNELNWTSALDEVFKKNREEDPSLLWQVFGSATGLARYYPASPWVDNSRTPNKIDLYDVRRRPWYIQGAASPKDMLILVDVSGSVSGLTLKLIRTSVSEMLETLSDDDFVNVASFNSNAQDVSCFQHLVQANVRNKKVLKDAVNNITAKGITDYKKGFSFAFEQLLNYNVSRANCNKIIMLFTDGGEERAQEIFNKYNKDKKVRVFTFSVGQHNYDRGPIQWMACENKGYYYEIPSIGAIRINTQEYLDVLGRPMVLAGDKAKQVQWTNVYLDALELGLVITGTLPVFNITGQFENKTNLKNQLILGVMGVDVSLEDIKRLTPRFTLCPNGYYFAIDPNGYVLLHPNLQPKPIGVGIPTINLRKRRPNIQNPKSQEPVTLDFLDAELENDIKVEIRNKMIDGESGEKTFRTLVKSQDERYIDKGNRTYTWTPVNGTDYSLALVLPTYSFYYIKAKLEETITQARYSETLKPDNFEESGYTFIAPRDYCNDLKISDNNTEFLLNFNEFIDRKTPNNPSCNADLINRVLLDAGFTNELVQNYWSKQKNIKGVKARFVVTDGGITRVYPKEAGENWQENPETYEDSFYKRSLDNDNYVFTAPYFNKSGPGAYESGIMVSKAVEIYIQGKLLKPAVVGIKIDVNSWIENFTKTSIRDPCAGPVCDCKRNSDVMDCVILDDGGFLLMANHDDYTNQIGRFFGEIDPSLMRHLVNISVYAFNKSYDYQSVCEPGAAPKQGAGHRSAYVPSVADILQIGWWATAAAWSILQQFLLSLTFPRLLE
T1 sequence (P54289 957-1103 partner limits assumed): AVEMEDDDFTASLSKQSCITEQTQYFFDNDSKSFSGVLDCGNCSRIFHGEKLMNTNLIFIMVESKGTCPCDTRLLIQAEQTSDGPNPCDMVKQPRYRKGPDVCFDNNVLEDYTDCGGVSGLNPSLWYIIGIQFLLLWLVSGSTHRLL

SMILES	pKa [1]	block of Ica amplitude ([2]; at 100 μM, 0.1 Hz, isolated human atrial myocytes)	IC50 [2]	Fold Difference (Parent vs. Derivative) [2]	logP [1]	reduction Ica ([2]; 0.1 μM nisoldipine added after exposure to test article, 2 cells, cell sensitivity test)
O=C1CN(/N=C/c2ccc(-c3ccc([N+](=O)[O-])cc3)o2)C(O)=N1 [Dantrolene sodium salt, reference compound]	7.11					
O=C1CN(/N=C/c2ccc(-c3ccc([N+](=O)[O-])cc3)o2)C(O)=N1 [Dantrolene]		21.1%	0.104 mM			
COCCOCCOCCN1C(=O)CN(N=Cc2ccc(-c3ccc([N+](=O)[O-])cc3)o2)C1=O [mPEG3-N-Dantrolene, mPEG3-N-dantrolene]				1067		
COCCOCCOCCOc1cc([N+](=O)[O-])ccc1-c1ccc(C=NN2CC(=O)NC2=O)o1 [mPEG3-O-Dantrolene, mPEG3-O-dantrolene]	8.69			1144	-0.6	
COCCOCCOCCOCCOCCN1C(=O)CN(N=Cc2ccc(-c3ccc([N+](=O)[O-])cc3)o2)C1=O [mPEG5-N-Dantrolene, mPEG5-N-dantrolene]			27 mM	260		
COCCOCCOCCOCCOCCOc1cc([N+](=O)[O-])ccc1-c1ccc(C=NN2CC(=O)NC2=O)o1 [mPEG5-O-Dantrolene, mPEG5-O-dantrolene]	7.49		54.3 mM	522	0.74	
COCCOCCOCCOCCOCCOCCOCCN1C(=O)CN(N=Cc2ccc(-c3ccc([N+](=O)[O-])cc3)o2)C1=O [mPEG7-N-Dantrolene, mPEG7-N-dantrolene]			0.193 mM	2		
COCCOCCOCCOCCOCCOCCOCCOc1cc([N+](=O)[O-])ccc1-c1ccc(C=NN2CC(=O)NC2=O)o1 [mPEG7-O-Dantrolene, mPEG7-O-dantrolene]	7.32		46.2 mM	444	0.62	
COC(=O)C1=C(C)NC(C)=C(C(=O)OCC(C)C)C1c1ccccc1[N+](=O)[O-] (centres unmarked) [nisoldipine, reference compound]						100%
